In PubChem BioAssay (NCI):
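All cell lines were grown in 96-well plates and treated with compound for 48 hours. Abbreviation: GI50, concentration required for 50% inhibition of growth. TGI is the concentration that stops growth completely.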

Assays:
Test in all cases: inhibition of tumour cell growth, NCI panel, 48 h
[1] = tested on: HT29 colon
[2] = tested on: KM20L2 colon
[3] = tested on: HOP-62 NSCLC
[4] = tested on: DMS 114 small cell lung
[5] = tested on: HCT-15 colon
[6] = tested on: HCT-116 colon
[7] = tested on: HL-60(TB) leukemia
[8] = tested on: M14 melanoma
[9] = tested on: MCF7 breast
[10] = tested on: DU-145 prostate
[11] = tested on: A498 renal

| Compound | TGI [1] [µM] | TGI [2] [µM] | TGI [3] [µM] | TGI [4] [µM] | TGI [5] [µM] | TGI [6] [µM] | TGI [7] [µM] | TGI [8] [µM] | TGI [9] [µM] | TGI [10] [µM] | TGI [11] [µM] | GI50 [1] [µM] | GI50 [3] [µM] | GI50 [9] [µM] | GI50 [5] [µM] | GI50 [6] [µM] | GI50 [7] [µM] | GI50 [8] [µM] | GI50 [10] [µM] | GI50 [11] [µM] |
| --- | --- | --- | --- | --- | --- | --- | --- | --- | --- | --- | --- | --- | --- | --- | --- | --- | --- | --- | --- | --- |
| O=C(O)CC/C(=N\Nc1nsc2ccccc12)c1ccccc1 | > 100 | > 100 | > 100 | 82 | > 100 | > 100 | 71.9 | > 100 | – | – | – | – | – | – | – | – | – | – | – | – |
| C[C@]12CC[C@@H]3c4ccc(O)cc4CC[C@H]3[C@@H]1C/C(=C\c1ccncc1)C2=O | 72.2 | – | > 100 | – | > 100 | – | 68 | > 100 | > 100 | 91.6 | 91.4 | – | – | – | – | – | – | – | – | – |
| COCCOCOc1ccc(OCc2ccccc2)cc1 | > 100 | > 100 | > 100 | > 100 | > 100 | > 100 | > 100 | – | > 51.4 | – | 99.5 | – | – | – | – | – | – | – | – | – |
| COC(=O)C1C(C(=O)OC)N(Cc2ccccc2)C(=O)N1Cc1ccccc1 (stereo unspecified) | > 100 | – | > 100 | – | – | > 100 | > 100 | > 100 | > 100 | > 100 | – | – | – | – | – | – | – | – | – | – |
| C=CCN1C(=O)/C(=C/c2ccccc2)N=C1SC1OC(COC(=O)c2ccccc2)C(OC(=O)c2ccccc2)C1OC(=O)c1ccccc1 (stereo unspecified) | – | – | > 100 | – | > 100 | – | > 100 | – | > 100 | > 100 | > 100 | – | – | – | – | – | – | – | – | – |
| C/C(CCOC1CCCCO1)=C(\C)[Si](C)(C)C (stereo unspecified) | > 100 | > 100 | – | > 100 | > 100 | > 100 | > 100 | > 100 | – | – | > 100 | – | – | – | – | – | – | – | – | – |
| COc1ccc2[nH]c(O)c(/C=c3/cc4c(c(-c5cc(OC)c(OC)c(OC)c5)n3)=Nc3ccccc3-4)c2c1 | 7.05 | – | > 100 | – | > 100 | 64.7 | 34 | > 100 | > 100 | > 100 | 8.72 | 2.41 | 11.6 | 2.11 | 5.3 | 3.49 | 7.46 | 6.32 | 88.2 | 1.7 |
| C=C(C(=O)C(=O)Oc1ccc(Cl)cc1)C(=O)c1ccc(C)cc1 | > 100 | > 100 | > 100 | > 100 | > 100 | 30.3 | > 100 | 81.8 | – | – | > 100 | – | – | – | – | – | – | – | – | – |
| CC(C)OP(=O)(OC(C)C)c1c(Nc2ccccc2)n[nH]c1N | > 100 | – | > 100 | – | > 100 | – | – | > 100 | > 100 | > 100 | > 100 | – | – | – | – | – | – | – | – | – |
| C#CCCCCC#Cc1ccccc1C(=O)OC | > 100 | > 100 | > 100 | 60 | > 100 | 23 | 29.4 | > 100 | – | – | > 100 | – | – | – | – | – | – | – | – | – |
| CCOC(=O)c1csc(NC(=O)CCN(CC)CC)n1 | 64.6 | – | > 100 | – | 75.3 | – | > 100 | 64.1 | 55.5 | > 100 | > 100 | – | – | – | – | – | – | – | – | – |
| CC1=C(O)C(=O)[C@@H]2O[C@@H]2C1=O | 36.6 | 49.4 | 100 | 28.4 | 22 | 27.8 | 8.59 | – | 31.7 | – | 17.1 | – | – | – | – | – | – | – | – | – |
